Test system: 485368-065-R3-J5-PDC spheroids with HUVEC/MSC, viability
Assay: Anticancer human tumor 485368-065-R3-J5-PDC patient-derived pancreatic carcinoma cell line growth inhibition [RAS]
Conditions: for IC50: curve of first compound; for viability, T/C: stronger effect = lower value
Outline: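 Multi-cell-type spheroids: tumor cells plus HUVEC endothelial cells and mesenchymal stem cells. RAS-pathway inhibitors were combined with targeted agents, each dosed in half-log steps down from clinical Cmax, or from 10 microM when Cmax was unknown.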
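Further: spheroids exposed to agents for seven days before readout.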

**Q.** `CCc1c2c(nc3ccc(O)cc13)-c1cc3c(c(=O)n1C2)COC(=O)[C@]3(O)CC` + CCn1c(-c2cccnc2C(C)OC)c2c3cc(ccc31)N1CCOC(CC(NC(=O)C(C(C)C)N(C)C(=O)C3(F)CCN(C(=O)C#CC(C)(C)N(C)C)CC3)C(=O)N3CCCC(N3)C(=O)OCC(C)(C)C2)C1 was tested. Which IC50 (second compound 0.000949 µM) did it give?
**A.** The IC50 was 2.21 nM.

**Q.** And the IC50 (second compound 0.003 µM)?
**A.** Its IC50 is 2.28 nM.

**Q.** And the IC50 (second compound 0.00949 µM)?
**A.** Its IC50 is 2.14 nM.

**Q.** What about the IC50 (second compound 0.03 µM) of the same compound?
**A.** The IC50 was 2.27 nM.

**Q.** And the IC50 (second compound 0.0949 µM)?
**A.** The IC50 was 2.05 nM.

**Q.** What about the IC50 (second compound 0.3 µM) of the same compound?
**A.** Its IC50 is 2.01 nM.

**Q.** What about the viability, T/C (second compound 0.000949 µM, first compound 0.000949 µM) of the same compound?
**A.** Its viability, T/C is 84.3%.

**Q.** What about the viability, T/C (second compound 0.000949 µM, first compound 0.003 µM) of the same compound?
**A.** The viability, T/C was 36.9%.

**Q.** And the viability, T/C (second compound 0.000949 µM, first compound 0.00949 µM)?
**A.** Its viability, T/C is 17%.

**Q.** What about the viability, T/C (second compound 0.000949 µM, first compound 0.03 µM) of the same compound?
**A.** Its viability, T/C is 7.78%.

**Q.** And the viability, T/C (second compound 0.000949 µM, first compound 0.0949 µM)?
**A.** Its viability, T/C is 3.95%.

**Q.** And the viability, T/C (second compound 0.000949 µM, first compound 0.3 µM)?
**A.** Its viability, T/C is 3.3%.

**Q.** And the viability, T/C (second compound 0.003 µM, first compound 0.000949 µM)?
**A.** Its viability, T/C is 84.1%.

**Q.** And the viability, T/C (second compound 0.003 µM, first compound 0.003 µM)?
**A.** The viability, T/C was 39.3%.

**Q.** What about the viability, T/C (second compound 0.003 µM, first compound 0.00949 µM) of the same compound?
**A.** Its viability, T/C is 15.1%.

**Q.** What about the viability, T/C (second compound 0.003 µM, first compound 0.03 µM) of the same compound?
**A.** The viability, T/C was 6.58%.

**Q.** What about the viability, T/C (second compound 0.003 µM, first compound 0.0949 µM) of the same compound?
**A.** The viability, T/C was 5.33%.

**Q.** And the viability, T/C (second compound 0.003 µM, first compound 0.3 µM)?
**A.** The viability, T/C was 2.88%.

**Q.** And the viability, T/C (second compound 0.00949 µM, first compound 0.000949 µM)?
**A.** Its viability, T/C is 76.9%.

**Q.** What about the viability, T/C (second compound 0.00949 µM, first compound 0.003 µM) of the same compound?
**A.** The viability, T/C was 39.2%.

**Q.** And the viability, T/C (second compound 0.00949 µM, first compound 0.00949 µM)?
**A.** The viability, T/C was 14.8%.

**Q.** What about the viability, T/C (second compound 0.00949 µM, first compound 0.03 µM) of the same compound?
**A.** The viability, T/C was 8.64%.

**Q.** What about the viability, T/C (second compound 0.00949 µM, first compound 0.0949 µM) of the same compound?
**A.** Its viability, T/C is 4.69%.

**Q.** And the viability, T/C (second compound 0.00949 µM, first compound 0.3 µM)?
**A.** Its viability, T/C is 3.02%.

**Q.** And the viability, T/C (second compound 0.03 µM, first compound 0.000949 µM)?
**A.** The viability, T/C was 88.8%.

**Q.** And the viability, T/C (second compound 0.03 µM, first compound 0.003 µM)?
**A.** Its viability, T/C is 37.2%.

**Q.** What about the viability, T/C (second compound 0.03 µM, first compound 0.00949 µM) of the same compound?
**A.** Its viability, T/C is 15.9%.

**Q.** And the viability, T/C (second compound 0.03 µM, first compound 0.03 µM)?
**A.** The viability, T/C was 8.19%.

**Q.** What about the viability, T/C (second compound 0.03 µM, first compound 0.0949 µM) of the same compound?
**A.** The viability, T/C was 3.98%.

**Q.** And the viability, T/C (second compound 0.03 µM, first compound 0.3 µM)?
**A.** Its viability, T/C is 2.16%.

**Q.** What about the viability, T/C (second compound 0.0949 µM, first compound 0.000949 µM) of the same compound?
**A.** The viability, T/C was 88.1%.

**Q.** What about the viability, T/C (second compound 0.0949 µM, first compound 0.003 µM) of the same compound?
**A.** The viability, T/C was 29.7%.

**Q.** What about the viability, T/C (second compound 0.0949 µM, first compound 0.00949 µM) of the same compound?
**A.** Its viability, T/C is 14.8%.

**Q.** And the viability, T/C (second compound 0.0949 µM, first compound 0.03 µM)?
**A.** The viability, T/C was 6.96%.

**Q.** And the viability, T/C (second compound 0.0949 µM, first compound 0.0949 µM)?
**A.** The viability, T/C was 4.68%.

**Q.** And the viability, T/C (second compound 0.0949 µM, first compound 0.3 µM)?
**A.** The viability, T/C was 2.71%.

**Q.** What about the viability, T/C (second compound 0.3 µM, first compound 0.000949 µM) of the same compound?
**A.** The viability, T/C was 82.5%.

**Q.** What about the viability, T/C (second compound 0.3 µM, first compound 0.003 µM) of the same compound?
**A.** The viability, T/C was 32.2%.

**Q.** What about the viability, T/C (second compound 0.3 µM, first compound 0.00949 µM) of the same compound?
**A.** Its viability, T/C is 12.6%.

**Q.** What about the viability, T/C (second compound 0.3 µM, first compound 0.03 µM) of the same compound?
**A.** The viability, T/C was 9.2%.

**Q.** What about the viability, T/C (second compound 0.3 µM, first compound 0.0949 µM) of the same compound?
**A.** The viability, T/C was 5.3%.

**Q.** And the viability, T/C (second compound 0.3 µM, first compound 0.3 µM)?
**A.** The viability, T/C was 2.3%.

Reference: PubChem BioAssay AID2060902 (Molecular Pharmacology Branch, DTP, NCI, 2025)
